test system: MV4;11 cells; experiment: Differentiation, proliferation, viability and cell cycle of MV4;11 cells, 14 days; format: cell-based, human; settings: MV4;11 cells, 0-3 μM
From the text: MV4;11 cells are a human acute myelocytic leukemia (AML) cell line derived from a human with leukemia.

SMILES | cell cycle analysis (PI staining) | expression of marker CD11b by flow cytometry (differentiation)
CC1=C(/C=C/C(C)=C/C=C/C(C)=C/C(=O)O)C(C)(C)CCC1 [ATRA, all trans retinoic acid, reference compound] | more cells were observed to be in the subG1/G0 phase | more cells in the population expressed the marker CD11b

same assay, conditions: MV4;11 cells, compared with Example 7

SMILES | effect on cell viability
CC1=C(/C=C/C(C)=C/C=C/C(C)=C/C(=O)O)C(C)(C)CCC1 [ATRA, all trans retinoic acid, reference compound] | less of an effect on cell viability

same assay, conditions: MV4;11 cells, increasing concentration

SMILES | growth inhibition and expression of CD11b
CC1=C(/C=C/C(C)=C/C=C/C(C)=C/C(=O)O)C(C)(C)CCC1 [ATRA, all trans retinoic acid, reference compound] | lead to growth inhibition and expression of CD11b

biological target: T1, G9a (Homo sapiens, UniProt Q96KQ7); experiment: Inhibition of G9a, AlphaLISA assay; format: biochemical; settings: not given
T1 sequence (Q96KQ7 1-1210): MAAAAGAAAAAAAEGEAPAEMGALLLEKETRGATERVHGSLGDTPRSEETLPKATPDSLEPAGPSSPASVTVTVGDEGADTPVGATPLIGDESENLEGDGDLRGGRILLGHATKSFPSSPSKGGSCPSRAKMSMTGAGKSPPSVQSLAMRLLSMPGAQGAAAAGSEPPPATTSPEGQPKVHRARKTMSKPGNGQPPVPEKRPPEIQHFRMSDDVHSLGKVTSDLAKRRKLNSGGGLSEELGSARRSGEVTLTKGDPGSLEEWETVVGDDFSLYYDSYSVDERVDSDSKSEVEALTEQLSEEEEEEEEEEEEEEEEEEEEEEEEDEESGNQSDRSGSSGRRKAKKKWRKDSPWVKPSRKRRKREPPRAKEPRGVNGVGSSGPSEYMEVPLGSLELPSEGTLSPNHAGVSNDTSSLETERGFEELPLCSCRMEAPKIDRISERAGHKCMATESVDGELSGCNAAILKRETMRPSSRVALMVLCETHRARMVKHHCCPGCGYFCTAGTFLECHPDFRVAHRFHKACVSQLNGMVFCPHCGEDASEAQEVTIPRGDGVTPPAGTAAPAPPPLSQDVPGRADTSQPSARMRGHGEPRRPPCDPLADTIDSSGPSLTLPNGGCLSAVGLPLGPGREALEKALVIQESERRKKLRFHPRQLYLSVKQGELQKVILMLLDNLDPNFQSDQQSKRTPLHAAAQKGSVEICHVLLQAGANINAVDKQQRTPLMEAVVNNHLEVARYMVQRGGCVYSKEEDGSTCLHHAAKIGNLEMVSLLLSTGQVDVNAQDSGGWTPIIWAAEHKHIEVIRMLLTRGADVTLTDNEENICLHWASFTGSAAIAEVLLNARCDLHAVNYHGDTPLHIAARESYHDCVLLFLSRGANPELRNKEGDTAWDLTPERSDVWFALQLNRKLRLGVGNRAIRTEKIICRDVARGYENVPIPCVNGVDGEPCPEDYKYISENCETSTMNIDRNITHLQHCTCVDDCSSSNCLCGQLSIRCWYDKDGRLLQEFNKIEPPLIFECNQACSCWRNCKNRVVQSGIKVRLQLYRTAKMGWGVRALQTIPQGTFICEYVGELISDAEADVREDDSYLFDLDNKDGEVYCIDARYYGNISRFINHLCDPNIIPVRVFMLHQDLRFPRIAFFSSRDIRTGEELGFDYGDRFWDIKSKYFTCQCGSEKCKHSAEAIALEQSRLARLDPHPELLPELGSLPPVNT
Description: The G9a assay was conducted in an Alphascreen format to detect methyl modification of a histone H3 peptide by the histone methyl transferase activity of the G9a enzyme.
For the assay, the following buffer was used to set up reactions: 50 mM Tris-HCl pH 7.5, 50 mM NaCl, 1 mM DTT, 0.01% Triton X-100, and 0.005% BSA, with the DTT and BSA added fresh prior to starting the reactions.
IC50 values were calculated by fitting the inhibition percent to the concentration of inhibitor [I] in the assay in equation 1 below, to solve for the IC50.

SMILES | IC50 [nM]
COc1cc2c(cc1OC)C1(CCCCC1)C(N)=N2 [Example 2, 5′,6′-dimethoxyspiro[cyclohexane-1,3′-indol]-2′-amine] | 3540
COc1cc2c(cc1OC)C1(CCC1)C(N)=N2 [Example 3, 5′,6′-dimethoxyspiro[cyclobutane-1,3′-indol]-2′-amine] | 153
COc1cc2c(cc1OC)C1(CCCC1)C(N)=N2 [Example 4, 5′,6′-dimethoxyspiro[cyclopentane-1,3′-indol]-2′-amine] | 2460
COc1cc2c(cc1OCCCn1ccnc1)N=C(N)C21CCC1 [Example 11, 6′-(3-(1H-imidazol-1-yl)propoxy)-5′-methoxyspiro[cyclobutane-1,3′-indol]-2′-amine] | 754
COc1cc2c(cc1OCCCC1CCCC1)N=C(N)C2(C)C [Example 17, 6-(3-cyclopentylpropoxy)-5-methoxy-3,3-dimethyl-3H-indol-2-amine] | 12900
COc1cc2c(cc1OCC1CCCN1C)N=C(N)C21CCC1 (stereo not shown) [Example 9, 5′-methoxy-6′-((1-methylpyrrolidin-2-yl)methoxy)spiro[cyclobutane-1,3′-indol]-2′-amine] | 5
COc1cc2c(cc1OCCCN1CCCC1)N=C(N)C2(C)C [Example 16, 5-methoxy-3,3-dimethyl-6-(3-(pyrrolidin-1-yl)propoxy)-3H-indol-2-amine] | 0.9
COc1cc2c(cc1OC)N=C(N)C2 [Example 6, 5,6-dimethoxy-3H-indol-2-amine] | 14400
COc1ccc2c(c1)C1(CCC1)C(N)=N2 [Example 5, 5′-methoxyspiro[cyclobutane-1,3′-indol]-2′-amine] | 18200

Now from value to compound:

IC50 [nM] | SMILES
1340 | COc1cc2c(cc1OCCCN1CC(F)(F)C1)N=C(N)C21CCC1 [Example 14, 6′-(3-(3,3-difluoroazetidin-1-yl)propoxy)-5′-methoxyspiro[cyclobutane-1,3′-indol]-2′-amine]
1 | COc1cc2c(cc1OCC1CCN(C)C1)N=C(N)C21CCC1 (stereo not shown) [Example 8, 5′-methoxy-6′-((1-methylpyrrolidin-3-yl)methoxy)spiro[cyclobutane-1,3′-indol]-2′-amine]
18 | COc1cc2c(cc1OCCCN1CC[C@@H](F)C1)N=C(N)C21CCC1 [Example 15, (R)-6′-(3-(3-fluoropyrrolidin-1-yl)propoxy)-5′-methoxyspiro[cyclobutane-1,3′-indol]-2′-amine]
3.7 | COc1cc2c(cc1OCCCN1CC[C@H](F)C1)N=C(N)C21CCC1 [Example 12, (S)-6′-(3-(3-fluoropyrrolidin-1-yl)propoxy)-5′-methoxyspiro[cyclobutane-1,3′-indol]-2′-amine]
4.8 | COc1cc2c(cc1OCCCN1CC(F)C1)N=C(N)C21CCC1 [Example 13, 6′-(3-(3-fluoroazetidin-1-yl)propoxy)-5′-methoxyspiro[cyclobutane-1,3′-indol]-2′-amine]
150 | COc1cc2c(cc1OCCC1CCCN1C)N=C(N)C21CCC1 (stereo not shown) [Example 10, 5′-methoxy-6′-(2-(1-methylpyrrolidin-2-yl)ethoxy)spiro[cyclobutane-1,3′-indol]-2′-amine]
